According to patent publication US8772284B2, “Method of treating cancer using combination of a bifunctional alkylating agent and DNA repair inhibitors” (Academia Sinica, priority 2009, dated 2014):

Assays:
CL-1-5 xenografts = conditions: CL-1-5 xenograft; LY294002 40 mg/Kg QD×9, triciribine 1 mg/Kg Q2D×5, BO-1509 10 mg/Kg
[1] = test system: NTUB1/P cells (cisplatin-resistant); assay: Cell viability, WST-1 assay; type: cell-based, human; conditions: for IC50: NTUB1/P cells, agent alone
Source text: (§1) Cell Lines and Cell Culture. H460 (human lung large cell carcinoma cells), H1299 (human lung large cell carcinoma p53-deficient cells), PC3 (human prostate carcinoma cells), U87 (human glioma cells), and MCF7 (human breast carcinoma cells) were purchased from the American Type Culture Collection (Rockville, Md.). OEC-M1 (human gingival squamous cell carcinoma cells) was obtained from Dr. C.-L. Meng (National Defense Medical College, Taiwan). NTUB1 (human bladder transitional carcinoma cells) and the cisplatin-resistant sub-line NTUB1/P were provided by Dr. Y.-S. Pu (National Taiwan University Hospital, Taiwan). CL-1-5 (human lung adenocarcinoma cells) was obtained from Dr. P. C. Yang (National Taiwan University). All cell lines (except U87, which was grown in MEM medium) were cultured in RPMI1640 medium supplemented with 10% FBS and antibiotics, and incubated at 37° C. in a humidified atmosphere with 5% CO2.
(§2) Measurement of Cell Viability. Cell viability was assessed using the cell proliferation reagent WST-1 (Roche Molecular Biochemicals, Penzberg, Germany), which is a tetrazolium salt that is cleaved by mitochondrial dehydrogenase in viable cells. In brief, 2,000-7,000 cells were seeded in each well of 96-well plates and incubated at 37° C. overnight prior to drug treatment. After a 72-h incubation with BO-1012 alone (0.1˜80 μM), ATO alone (1˜8 μM), or BO-1012 plus ATO, WST-1 solution was added to each well at a 1:10 dilution, and cells were incubated at 37° C. in 5% CO2 for 4 h. Cell viability was assessed by absorbance at 460 nm using an automatic enzyme-linked immunosorbent assay (ELISA) plate reader. The IC50 value for each drug, alone or in combination, was calculated using CompuSyn software (version 1.0.1; CompuSyn, Inc.). The interactions between ATO and BO-1012 were evaluated by the Chou-Talalay combination indices (CI), where CI<1 indicates synergy; CI=1, additivity; and CI>1, antagonism.

NTUB1 cells = assay: Cell viability, WST-1 assay; type: cell-based, human; conditions: agent alone
Source text: as §1, §2

[2] = test system: NTUB1/P cells (cisplatin-resistant); conditions: NTUB1/P vs NTUB1, stated with ref [37]; cited from earlier work
DNA ICLs in H460 cells = assay: Modified comet assay, formation and repair of DNA ICLs; type: cell-based, human; conditions: treated 1 h
Experimental: (§3) H460 cells were treated with various concentrations of BO-1012, melphalan, or thiotepa for 1 h and then subjected to the modified comet assay as described in Materials and Methods. Percentage of DNA ICLs was calculated by the percentage of decrease in tail moment. […] H460 cells were treated with 40 μM BO-1012 for 1 h, washed, and then treated with 8 μM ATO for 16, 24, and 48 h. *, p<0.05 as compared to BO-1012 alone at the indicated time. […] H460 cells were treated with BO-1012 and ATO, alone or in combination, as described above. After treatment, the detection of γH2AX (green) immunofluorescence staining was performed as described in Materials and Methods. Nuclei were stained by DAPI (blue).
Modified Single-Cell Gel Electrophoresis (Comet) and DNA ICL Repair Assays. The formation and the repair of DNA ICLs in H460 cells was analyzed using a modified comet assay as described previously.

[3] = test system: γH2AX nuclear foci in H460 cells; assay: γH2AX nuclear foci, immunofluorescence staining; type: cell-based, human; conditions: time not stated
Experimental: as §3
Immunofluorescence Staining. H460 cells were cultured onto slides and then treated with BO-1012 and ATO, separately and in combination as described above, for 24, 48, or 72 h. To visualize γH2AX, cells were washed with cold PBS and fixed with 100% ice-cold methanol for 30 min. Slides were washed with PBS and incubated with anti-γH2AX antibody for 2 h at room temperature followed by Alexa Fluor 488-conjugated secondary antibodies (Molecular Probes, Eugene, Oreg.) and DAPI. After mounting with 50% glycerol, slides were subjected to confocal image analysis (Radiance 2100 System, Bio-Rad). Cells with at least four γH2AX foci in nuclei were counted as positive.

NTUB1 xenografts = assay: NTUB1 xenograft mouse model; type: in vivo, nude mice; conditions: 2.5 mg/kg BO-1012 or 5 mg/kg ATO, i.v., QD×5
NTUB1/P xenografts = assay: NTUB1/P xenograft mouse model; type: in vivo, nude mice; conditions: 5 mg/kg ATO, i.v., QD×5
H460 xenografts = assay: H460 xenograft mouse model; type: in vivo, nude mice; conditions: 2.5 mg/kg BO-1012 and/or 5 mg/kg ATO, i.v., QD×5

## O=c1cc(N2CCOCC2)oc2c(-c3ccccc3)cccc12 [LY294002, 2-(4-morpholinyl)-8-phenyl-chromone]
CL-1-5 xenografts
  suppression of tumor growth: unable to suppress the tumor growth at all

## N.N.[Cl][Pt][Cl] [cisplatin]
[1]
  IC50: 212 µM
NTUB1 cells
  IC50: 3.6 µM
[2]
  fold more resistant to cisplatin than the parental cells: 60 fold

## N[C@@H](Cc1ccc(N(CCCl)CCCl)cc1)C(=O)O [melphalan]
DNA ICLs in H460 cells
  formation of ICLs: increased in a dose-dependent fashion

## S=P(N1CC1)(N1CC1)N1CC1 [thiotepa]
DNA ICLs in H460 cells
  formation of ICLs: increased in a dose-dependent fashion

## arsenic trioxide [ATO]
[3]
  percentage of cells with γH2AX foci: 26.8%
[1]
  IC50: 3.8 µM
[1]; ratio of IC50 values
  fold more resistant, NTUB1/P than NTUB1 cells: 9.5 fold
NTUB1 cells
  IC50: 0.4 µM
NTUB1 xenografts
  growth of NTUB1 tumors: did not effectively suppress
DNA ICLs in H460 cells
  formation of ICLs: did not cause ICLs
NTUB1/P xenografts
  growth of NTUB1/P tumors: did not effectively suppress
H460 xenografts
  time to achieve a tumor volume of 500 mm^3: 7.1 days
